# Test results: US20230001026A1, “PHAR[…] UNITS AND METHODS FOR CONCOMITANT ADMINISTRATION OF RADIOTRACERS” (LikeMinds, Inc., priority 2019, published 2023)
# Where “and” joins values, the source holds several entries; their conditions need not be identical. Equal values may be shown once. Read-outs that look alike come from different tables or passages of the source.
# Assays:
# [1] = sponsored clinical trials: safety and radiation dose of bolus injection; type: in vivo, human
# Protocol: Such buffers include, but are not limited to, ethanol (solvent), sodium hydroxide and acetic acid (pH adjustment), sodium chloride injection (isotonic vehicle). The formulation to be administered as a bolus injection has been shown in sponsored clinical trials to be safe containing a dose of up to about 8 mCi to 10 mCi of radiolabeled DaT2020 and delivered in a total volume of about 2.5 mL to about 5 mL.
# The radioactivity of the dose of radiolabeled DaT2020 or of its radiolabeled derivatives, can be determined by one with skill in the art, e.g. by a nuclear medicine imaging technician. In addition, the total radioactivity of the actual administered dose is of relevance and not the volume administered to achieve this dose. The exact radioactive dose of the tracer administered is determined by calculating the difference between the radioactivity in the syringe and delivery system before and after injection. After the dose is delivered, the syringe is filled with a volume of saline equal to the administered dose volume. The syringe content is recounted under the same conditions as used to determine the dose; separately. […]
# DAT in the striatum [2] = biological target: T1, DAT in the striatum (Homo sapiens, UniProt Q01959); assay: SPECT imaging of radiotracer binding to DAT after i.v. injection; type: in vivo; set-up: from tissue; host or cells: striatum of living patients (in vivo SPECT)
# T1 sequence (Q01959 whole entry): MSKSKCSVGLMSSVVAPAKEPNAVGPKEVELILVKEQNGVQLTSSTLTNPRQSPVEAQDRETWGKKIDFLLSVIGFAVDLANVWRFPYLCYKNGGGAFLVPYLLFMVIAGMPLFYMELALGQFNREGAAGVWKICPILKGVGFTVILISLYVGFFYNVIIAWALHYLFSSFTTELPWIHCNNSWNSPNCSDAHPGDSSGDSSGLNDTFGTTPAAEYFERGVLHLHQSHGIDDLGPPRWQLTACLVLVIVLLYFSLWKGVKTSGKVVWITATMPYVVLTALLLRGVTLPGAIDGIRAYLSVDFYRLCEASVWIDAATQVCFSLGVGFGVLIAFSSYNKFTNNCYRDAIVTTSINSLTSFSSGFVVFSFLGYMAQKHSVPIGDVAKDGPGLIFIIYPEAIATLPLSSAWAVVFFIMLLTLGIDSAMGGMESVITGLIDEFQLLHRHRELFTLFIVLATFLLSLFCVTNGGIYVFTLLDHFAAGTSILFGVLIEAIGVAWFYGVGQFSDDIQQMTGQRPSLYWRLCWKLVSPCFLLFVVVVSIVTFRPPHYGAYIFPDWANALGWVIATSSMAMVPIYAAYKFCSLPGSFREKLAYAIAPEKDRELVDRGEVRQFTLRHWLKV
# Excerpt: More recently, the SN to striatum pathway of a live patient has become assessible by viewing images of the striatum obtained by various noninvasive imaging techniques. Such non-invasive methods use single photon emission computed tomography (SPECT) assessment measuring the uptake/binding of a radiolabeled imagining agent that binds to dopamine transporters (DAT) in the striatum. Currently, the only SPECT radiopharmaceutical approved for use in the United States, the European Union, and Canada is DaTSCAN® (N-ω-fluoropropyl-2β-carbomethoxy-3β-(4-iodophenyl) nortropane), which is radiolabeled with ^123I. After injection of DaTSCAN, the patient must wait 3 hr for its uptake into systemic circulation, and transition through the blood brain barrier into the parenchyma of the brain tissue until it reaches stable binding to DAT. At that point, radioactivity (counts) can be collected and quantified, and a visual image can be acquired via SPECT. The visual image is compiled for reading by experts who then determine if there is evidence of DAT density loss in the striatum. In the case of a patient with Parkinson's disease, an asymmetrical pattern of binding in the striatum is observed in the image, whereas in the non-parkinsonian tremor patient, the pattern is visible as bilateral and symmetrical (i.e., “normal) (Lewis et al. (2012) Practitioner 1748: 21-24). This information is used by treating physicians in determining diagnosis and subsequent treatment.
# SPECT and PET are procedures in which the isotope bound to DaT2020 or derivatives thereof is measured once the agent has been administered and has reached stable binding in the ROI. Once entering the blood stream, it travels throughout the body (e.g., brain, liver, kidney, heart, lungs, and the peripheral vascular system) and binds to DAT in various regions of the body including the striatum. The time it takes to reach stable binding (to eliminate background noise to form a clearer image) depends on the ROI and the depth of the tissue penetrated by the agent.
# In SPECT, the single emitted photon passes into the camera and strikes a scintillation crystal which, in turn, is viewed by a large number of photomultiplier tubes. The output voltages generated by the photomultiplier tubes are fed to a position circuit which produces four output signals. These signals contain information about the position and intensity of where the photon struck the crystal (scintillations). These signals (which “unblank” or “light up” the receiver, e.g., a cathode ray oscilloscope) for each photon are then fed into the memory circuitry of a computer and stored. […] Therefore, one can obtain counts and process them for quantitation at any single moment or over varying periods of time during a single scan session. In order to construct an image, a scan session must collect millions of counts over time in order to produce enough detail for a human reader to evaluate. […]
# SPECT acquisition is performed on a SPECT/CT or stand-alone SPECT with at least two imaging heads fitted with collimators (parallel-beam and fan beam collimators with manufacturer specified (or measured according to NEMA standards) planar system resolution of <8 mm FWHM (in ‘air’ at 10 cm distance). Raw projection data (or counts) are acquired as described in Djang et al. (2013) Nuclear Med. Mol. Imaging 47(2):73-80), step-and-shoot mode with angle increments of 3° can be used. […]
# DAT = DAT (Homo sapiens, UniProt Q01959); details: package insert; cited from earlier work
# Sequence of DAT (Q01959 whole entry, species assumed): as the sequence (Q01959 whole entry) above
# DAT in the striatum [3] = biological target: T1, DAT in the striatum; details: cited from earlier work; for time after injection until binding to striatal DAT becomes stable: post-injection, before SPECT imaging
Structure (SMILES),"safety of bolus injection formulation ([1]; dose of up to about 8 mCi to 10 mCi, total volume about 2.5 mL to about 5 mL)",effective dose ([1]; for 5 mCi of radiolabeled DaT2020),"time after administration at which stable binding occurs (DAT in the striatum [2]; after administration, scanning can begin)",time at which captured energy (counts) stabilizes (DAT in the striatum [2]; during scan after administration),SPECT image availability after i.v. injection time (DAT in the striatum [2]; post i.v. injection),time of wash-out from DAT receptors in dopaminergic neurons (DAT in the striatum [2]; post i.v. injection),scan time over which sufficient data for an image are collected (DAT in the striatum [2]; scan starting 15 min after administration),DAT sites bound for every one SERT site (DAT),half-life (DAT in the striatum [3]; 123I-labeled tracer),earliest start of scanning procedure after administration (DAT in the striatum [3]; after administration),duration for which binding remains stable (DAT in the striatum [3]; after stable binding is reached 3 hr post-injection),"time of wash-out from DAT receptors in dopaminergic neurons (DAT in the striatum [3]; post i.v. injection, comparator, 'or more')","SPECT image availability after i.v. injection time (DAT in the striatum [3]; post i.v. injection, comparator)",time after injection until binding to striatal DAT becomes stable (DAT in the striatum [3]),time after injection until binding to striatal DAT becomes stable (DAT in the striatum [3]; listed as [^123I]-FP-CIT),"fraction of tracer available for DAT transporter binding in the brain tissue (DAT in the striatum [3]; rest bound to transporters other than DAT, package insert)"
"COC(=O)C1C(c2ccc(F)cc2)CC2CCC1N2C/C=C/[123I] (stereo not drawn) [DaT2020, [^123I]-E-2β-carbomethoxy-3β-(4-fluorophenyl)-N-(3-iodo-E-allyl) nortropane]",safe,approximately 4.3 mSv,15 min,14 to 18 min,45 to 60 min,≤ 60 min,30 min,,,,,,,,,
"COC(=O)[C@H]1[C@@H](c2ccc(I)cc2)C[C@@H]2CC[C@H]1N2CCCF [DaTSCAN, N-ω-fluoropropyl-2β-carbomethoxy-3β-(4-iodophenyl) nortropane]",,,,,,,,two to three,13.2 h,at least 180 min,3 h,180 to 240 min,180 to 240 min,3 h and 3 to 6 h,3 h,about 7%
